The values that follow come from patent publication US20190308988A1, “OPIOID RECEPTOR ANTAGONIST PRODRUGS” (Nirsum Laboratories, Inc., priority 2017, published 2019).

What is called solubility is how much of the substance goes into solution per volume. As usually defined, the thermodynamic solubility is the concentration in solution at equilibrium with solid.

Data set [1] is described as follows: Polymorph screening of solid state drug substances (Table 23). The format is physicochemical. As to conditions: stirred 50 °C 72 hours; for Dry method and appearance: dried solid.
Data set [2] in a line: Solubility determination in oil (Table 10). As to conditions: for solubility at 24 h: 25 °C, Obs. Temp. 25 °C; for solubility at 24 h / solubility thermodynamic / solubility: thermodynamic from solid; for solubility thermodynamic / solubility: 40 °C; for solubility thermodynamic: water, Equilibrium solubility: Water. Here is the method:
A known amount of test substance (˜40 mg) was weighed into the vial, 100 μL of oil was added and heated to 60° C. and then system was slurried to reach equilibrium. […] Extra oil was added into the vial once compound precipitated out and then the system was re-equilibrated at 1000 rpm at room temperature (25° C.). Final concentration was determined by HPLC method as described below in Table 6a and 6b.

Setting [3] is: oil or lipid, Approximate Solubility in Excipient: Cottonseed oil, Heating Temp. 60 °C.
The mark [4] stands for this setting: oil or lipid, Approximate Solubility in Excipient: Sesame oil, Heating Temp. 60 °C.
[5] abbreviates: Heating Temp. 40 °C, Obs. Temp. 40 °C.
Setting [6] is: Heating Temp. 60 °C, Obs. Temp. 40 °C.
[7] abbreviates: oil or lipid, Approximate Solubility in Excipient: Cottonseed oil, Heating Temp. 40 °C, Obs. Temp. 40 °C.
[8] abbreviates: oil or lipid, Approximate Solubility in Excipient: Sesame oil, Heating Temp. 40 °C, Obs. Temp. 40 °C.
The mark [9] stands for this setting: organic solvent or mixture, Approximate Solubility in Excipient: Ethanol, Heating Temp. 40 °C, Obs. Temp. 40 °C.
The mark [10] stands for this setting: oil or lipid, Approximate Solubility in Excipient: Castor oil, Heating Temp. 40 °C, Obs. Temp. 40 °C.

In brackets after ≈: the same amount, converted by molar mass.

As to `C=C1CC[C@@]2(O)C3Cc4ccc(OC(=O)OCCCCCCCCCCCCCC)c5c4[C@@]2(CCN3CC2CC2)[C@H]1O5` [Compound 31, (4aS,7aS,12bS)-3-(cyclopropylmethyl)-4a-hydroxy-7-methylene-2,3,4,4a,5,6,7,7a-octahydro-1H-4,12-methanobenzofuro[3,2-e]isoquinolin-9-yl tetradecyl carbonate], the “XRPD results (Dried)” value in data set [1] (Acetone), in data set [1] (EtOAc), in data set [1] (Heptane), in data set [1] (Isopropanol) and in data set [1] (MTBE) was “Pattern A” in each case. The “Dry method and appearance” value in data set [1] (Acetone), in data set [1] (EtOAc), in data set [1] (Heptane), in data set [1] (Isopropanol) and in data set [1] (MTBE) was “Evaporation/white powder” each time. The solubility at 24 h in data set [2] (setting [3]) is greater than 417 mg/mL; in data set [2] (setting [4]), greater than 414 mg/mL. For the same compound, the solubility (thermodynamic) in data set [2] (setting [5]) was less than 0.001 mg/mL.
As for `CCCCCCCCCCOC(=O)Oc1ccc2c3c1O[C@H]1C(=O)CC[C@@]4(O)C(C2)N(CC2CC2)CC[C@]314` [Compound 10, (4aS,7aR,12bS)-3-(cyclopropylmethyl)-4a-hydroxy-7-oxo-2,3,4,4a,5,6,7,7a-octahydro-1H-4,12-methanobenzofuro[3,2-e]isoquinolin-9-yl decyl carbonate], the “XRPD results (Dried)” value in data set [1] (Acetone), in data set [1] (EtOAc), in data set [1] (Heptane), in data set [1] (Isopropanol) and in data set [1] (MTBE) was “Pattern A” in each case. Besides, the “Dry method and appearance” value is on record as “Evaporation/White wax” in data set [1] (Acetone); “Evaporation/White wax” in data set [1] (EtOAc); “Centrifugation/White wax” in data set [1] (Heptane); “Evaporation/White wax” in data set [1] (Isopropanol); “Evaporation/White wax” in data set [1] (MTBE).
For the compound `CCCCCCCCCCCCCC(=O)Oc1ccc2c3c1O[C@H]1C(=O)CC[C@@]4(O)C(C2)N(CC2CC2)CC[C@]314` [Compound 57, (4aS,7aR,12bS)-3-(cyclopropylmethyl)-4a-hydroxy-7-oxo-2,3,4,4a,5,6,7,7a-octahydro-1H-4,12-methanobenzofuro[3,2-e]isoquinolin-9-yl tetradecanoate], the solubility at 24 h in data set [2] (setting [3]) was greater than 424 mg/mL; in data set [2] (setting [4]), greater than 417 mg/mL. The thermodynamic solubility in data set [2] (setting [5]) was less than 0.001 mg/mL.
On the same counts, the results for `CCCCCCCCCCCCCCCCCCCCCC(=O)Oc1ccc2c3c1O[C@H]1C(=O)CC[C@@]4(O)C(C2)N(CC2CC2)CC[C@]314` [Compound 51, (4aS,7aR,12bS)-3-(cyclopropylmethyl)-4a-hydroxy-7-oxo-2,3,4,4a,5,6,7,7a-octahydro-1H-4,12-methanobenzofuro[3,2-e]isoquinolin-9-yl docosanoate] are less than 50 mg/mL, less than 46 mg/mL and less than 0.001 mg/mL.
As to `C=C1CC[C@@]2(O)[C@H]3Cc4ccc(O)c5c4[C@@]2(CCN3CC2CC2)[C@H]1O5` [61 (Nalmefene)], in data set [2] (setting [6]), the “Approximate Solubility in Excipient: Cottonseed oil” value was less than 25.0 mg/mL, the “Approximate Solubility in Excipient: Ethanol” value lay within 102 to 137 mg/mL, the “Approximate Solubility in Excipient: Sesame oil” value is recorded as less than 25.5 mg/mL and the “Equilibrium solubility: Water” value turned out to be 0.025 mg/mL.
`C=C1CC[C@@]2(O)C3Cc4ccc(OC(=O)CCCCCCC/C=C\C/C=C\C/C=C\CC)c5c4[C@@]2(CCN3CC2CC2)[C@H]1O5` [Compound 20, (4aS,7aS,12bS)-3-(cyclopropylmethyl)-4a-hydroxy-7-methylene-2,3,4,4a,5,6,7,7a-octahydro-1H-4,12-methanobenzofuro[3,2-e]isoquinolin-9-yl (9Z,12Z,15Z)-octadeca-9,12,15-trienoate]: the solubility at 24 h is 68 to 82 mg/mL (≈ 113 to 137 mM) in data set [2] (setting [3]) and 80 to 100 mg/mL (≈ 133 to 167 mM) in data set [2] (setting [4]). The values for the solubility in data set [2] (setting [7]), in data set [2] (setting [8]) and in data set [2] (setting [9]) were greater than 414 mg/mL, greater than 406 mg/mL and 157 to 197 mg/mL (≈ 262 to 328 mM), respectively. The same compound had a solubility (thermodynamic) in data set [2] (setting [5]) of less than 0.0002 mg/mL.
Consider `C=C1CC[C@@]2(O)C3Cc4ccc(OC(=O)OCCCCCCCC)c5c4[C@@]2(CCN3CC2CC2)[C@H]1O5` [Compound 17, (4aS,7aS,12bS)-3-(cyclopropylmethyl)-4a-hydroxy-7-methylene-2,3,4,4a,5,6,7,7a-octahydro-1H-4,12-methanobenzofuro[3,2-e]isoquinolin-9-yl octyl carbonate], for which the results for the solubility at 24 h in data set [2] (setting [3]) and in data set [2] (setting [4]) were greater than 408 mg/mL and greater than 487 mg/mL, respectively. Further, the solubility is greater than 416 mg/mL in data set [2] (setting [7]), greater than 416 mg/mL in data set [2] (setting [8]) and greater than 209 mg/mL in data set [2] (setting [9]). In data set [2] (setting [5]), the solubility (thermodynamic) turned out to be 0.0008 mg/mL (≈ 0.00161 mM).
On to `CCCCCCCCCCCCCCOC(=O)OCOc1ccc2c3c1O[C@H]1C(=O)CC[C@@]4(O)C(C2)N(CC2CC2)CC[C@]314` [Compound 27, (((4aS,7aR,12bS)-3-(cyclopropylmethyl)-4a-hydroxy-7-oxo-2,3,4,4a,5,6,7,7a-octahydro-1H-4,12-methanobenzofuro[3,2-e]isoquinolin-9-yl)oxy)methyl tetradecyl carbonate], for which the solubility at 24 h in data set [2] (setting [3]) is greater than 395 mg/mL; in data set [2] (setting [4]), greater than 399 mg/mL. In data set [2] (setting [5]), this compound returned a thermodynamic solubility of less than 0.001 mg/mL.
With `C=C1CC[C@@]2(O)C3Cc4ccc(OC(=O)CC(C)(C)C)c5c4[C@@]2(CCN3CC2CC2)[C@H]1O5` [Compound 38, (4aS,7aS,12bS)-3-(cyclopropylmethyl)-4a-hydroxy-7-methylene-2,3,4,4a,5,6,7,7a-octahydro-1H-4,12-methanobenzofuro[3,2-e]isoquinolin-9-yl 3,3-dimethylbutanoate], the solubility in data set [2] (setting [10]) is greater than 248 mg/mL; in data set [2] (setting [7]) it was greater than 407 mg/mL; in data set [2] (setting [8]), 230 to 411 mg/mL (≈ 526 to 939 mM); in data set [2] (setting [9]) it was 160 to 200 mg/mL (≈ 366 to 457 mM). Moreover, the solubility (thermodynamic) amounted to 0.617 mg/mL (≈ 1.41 mM) in data set [2] (setting [5]) and 0.21 mg/mL (≈ 0.48 mM) in data set [2] (setting [6]).
In the case of `O=C(CCC1CCCC1)Oc1ccc2c3c1O[C@H]1C(=O)CC[C@@]4(O)C(C2)N(CC2CC2)CC[C@]314` [Compound 43, (4aS,7aR,12bS)-3-(cyclopropylmethyl)-4a-hydroxy-7-oxo-2,3,4,4a,5,6,7,7a-octahydro-1H-4,12-methanobenzofuro[3,2-e]isoquinolin-9-yl 3-cyclopentylpropanoate], the solubility in data set [2] (setting [7]) was less than 50 mg/mL; in data set [2] (oil or lipid, Approximate Solubility in Excipient: Cottonseed oil, Heating Temp. 60 °C, Obs. Temp. 40 °C), 140 to 210 mg/mL (≈ 301 to 451 mM); in data set [2] (setting [8]), less than 50 mg/mL; in data set [2] (oil or lipid, Approximate Solubility in Excipient: Sesame oil, Heating Temp. 60 °C, Obs. Temp. 40 °C), 133 to 199 mg/mL (≈ 286 to 427 mM); in data set [2] (setting [9]), greater than 257 mg/mL. Besides, the solubility (thermodynamic) in data set [2] (setting [5]) is 0.05 mg/mL (≈ 0.107 mM). In data set [2] (setting [5]), the “Equilibrium solubility: Water” value was 0.048 mg/mL.
As for `C=C1CC[C@@]2(O)C3Cc4ccc(OC(=O)CCCCCCC/C=C\CCCCCCCC)c5c4[C@@]2(CCN3CC2CC2)[C@H]1O5` [Compound 36, (4aS,7aS,12bS)-3-(cyclopropylmethyl)-4a-hydroxy-7-methylene-2,3,4,4a,5,6,7,7a-octahydro-1H-4,12-methanobenzofuro[3,2-e]isoquinolin-9-yl oleate], the solubility at 24 h is greater than 407 mg/mL in data set [2] (setting [3]) and greater than 408 mg/mL in data set [2] (setting [4]). Further, the solubility in data set [2] (setting [10]) was greater than 217 mg/mL; in data set [2] (setting [7]), greater than 419 mg/mL; in data set [2] (setting [8]), greater than 412 mg/mL; in data set [2] (setting [9]), 20 to 30 mg/mL (≈ 33.1 to 49.7 mM). Moreover, the solubility (thermodynamic) in data set [2] (setting [5]) was determined as 0.005 mg/mL (≈ 0.00828 mM).
Take `C=C1CC[C@@]2(O)C3Cc4ccc(OC(=O)CCCCCCCCCCC/C=C\CCCCCCCC)c5c4[C@@]2(CCN3CC2CC2)[C@H]1O5` [Compound 13, (4aS,7aS,12bS)-3-(cyclopropylmethyl)-4a-hydroxy-7-methylene-2,3,4,4a,5,6,7,7a-octahydro-1H-4,12-methanobenzofuro[3,2-e]isoquinolin-9-yl (Z)-docos-13-enoate]: the solubility at 24 h in data set [2] (setting [3]) is less than 50 mg/mL; in data set [2] (setting [4]), 91 to 121 mg/mL (≈ 138 to 183 mM). The solubility in data set [2] (setting [7]) is greater than 381 mg/mL; in data set [2] (setting [8]), greater than 406 mg/mL; in data set [2] (setting [9]), greater than 214 mg/mL. Also, in data set [2] (setting [5]), the thermodynamic solubility worked out at 0.002 mg/mL (≈ 0.00303 mM).
